Assay results as given in patent US20170305922A1, “CARM1 INHIBITORS AND USES THEREOF” (Epizyme, Inc., priority 2014, published 2017).

What was measured:
Human CARM1 (PRMT4) = target: T1, Human CARM1 (PRMT4) (Homo sapiens, UniProt Q86X55); test: CARM1 enzyme assay on peptide substrates (3H-SAM Flashplate); conditions: Biochemical assay; CARM1 0.25 nM, 3H-SAM 30 nM, peptide 250 nM; read-out: Biochem IC50
T1 construct: Flag-CARM1-His was eluted with 200 ug/ml FLAG peptide in buffer A; made in house; host or cells: HEK 293F cells infected with recombinant baculovirus (pFastBacMam)
T1 sequence (Q86X55 1-585 isoform Q86X55-1): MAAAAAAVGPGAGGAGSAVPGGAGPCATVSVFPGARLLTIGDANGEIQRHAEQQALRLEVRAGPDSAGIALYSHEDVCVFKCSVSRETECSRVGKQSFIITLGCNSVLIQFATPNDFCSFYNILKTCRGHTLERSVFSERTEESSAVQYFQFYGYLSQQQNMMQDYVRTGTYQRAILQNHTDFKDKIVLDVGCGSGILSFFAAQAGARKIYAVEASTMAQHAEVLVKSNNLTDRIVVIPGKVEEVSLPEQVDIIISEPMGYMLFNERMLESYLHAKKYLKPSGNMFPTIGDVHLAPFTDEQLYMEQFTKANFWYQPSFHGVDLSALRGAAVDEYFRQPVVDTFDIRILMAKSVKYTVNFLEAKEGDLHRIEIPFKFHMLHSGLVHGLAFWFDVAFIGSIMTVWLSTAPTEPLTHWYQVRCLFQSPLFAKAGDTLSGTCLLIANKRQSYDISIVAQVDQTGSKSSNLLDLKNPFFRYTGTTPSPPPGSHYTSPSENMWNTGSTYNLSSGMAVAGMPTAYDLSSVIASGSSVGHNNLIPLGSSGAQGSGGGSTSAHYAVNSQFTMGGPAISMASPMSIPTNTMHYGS

[1] = test system: asymmetric di-methyl PABP1 in RKO cells; test: RKO methylation assay: In Cell Western (ICW) for asymmetric di-methyl PABP1 (PABP1me2a); conditions: Homo sapiens, RKO, 48 h, Cellular-based (PABP1me2a) ICW (In Cell Western) assay
Outline: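 In-cell western on compound-exposed RKO cells (48 hours): asymmetric di-methyl PABP1 detected by antibody at 800 nm, DNA content by DRAQ5 at 700 nm. Percent inhibition from signal ratios against DMSO (minimum) and 20 μM reference compound (maximum) wells; IC50 curves fitted from triplicates.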

## CNC[C@@H](O)COc1ccc(Cl)c(-c2nc(-c3c(C)noc3C)c(C)c(N3Cc4cnc(C5CC5)cc4C3)n2)c1 [Example 36]
Human CARM1 (PRMT4)
  IC50: 2.4 nM
[1]
  IC50: 49 nM

## CNC[C@@H](O)COc1ccc(Cl)c(-c2nc(-c3c(C)noc3C)c(C)c(N3CC4(CN(CC(F)F)C4)C3)n2)c1 [Example 62]
Human CARM1 (PRMT4)
  IC50: 64.7 nM
[1]
  IC50: 526 nM

## CNC[C@@H](O)COc1ccc(Cl)c(-c2nc(-c3c(C)c(Cl)nn3C)c(C)c(N3CC4(CN(CC(F)F)C4)C3)n2)c1 [Example 285]
Human CARM1 (PRMT4)
  IC50: 2.4 nM
[1]
  IC50: 46.1 nM

## CC[C@H]1CN(c2nc(-c3cc(OC[C@H](O)CNC)ccc3Cl)nc(-c3c(C)noc3C)c2C)CCN1CC(F)F [Example 225]
Human CARM1 (PRMT4)
  IC50: 9.3 nM
[1]
  IC50: 445 nM

## CNC[C@@H](O)COc1ccc(Cl)c(-c2nc(-c3c(Br)cnn3C)c(C)c(N3CC4=C(CN(C(=O)OC)C4)C3)n2)c1 [Example 336]
Human CARM1 (PRMT4)
  IC50: 3.03 nM
[1]
  IC50: 32.1 nM

## CNC[C@@H](O)COc1ccc(Cl)c(-c2nc(-c3c(C)noc3C)c(C)c(N3CC4(CC(OCCC#N)C4)C3)n2)c1 [Example 287]
Human CARM1 (PRMT4)
  IC50: 4.46 nM
[1]
  IC50: 69.1 nM

## CNC[C@@H](O)COc1ccc(Cl)c(-c2nc(-c3c(C)noc3C)c(C)c(N3CC4(CC(C(=O)N(C)C)C4)C3)n2)c1 [Example 91]
Human CARM1 (PRMT4)
  IC50: 5.5 nM
[1]
  IC50: 92 nM

## CC[C@@H]1CN(c2nc(-c3cc(OC[C@H](O)CNC)ccc3Cl)nc(-c3c(C)noc3C)c2C)CCN1C(=O)OC [Example 205]
Human CARM1 (PRMT4)
  IC50: 3.7 nM
[1]
  IC50: 202 nM

## CNC[C@@H](O)COc1ccc(Cl)c(-c2nc(-c3c(C)noc3C)c(C)c(N3Cc4cn(C5CCOCC5)nc4C3)n2)c1 [Example 136]
Human CARM1 (PRMT4)
  IC50: 5.1 nM
[1]
  IC50: 172 nM

## CNC[C@@H](O)COc1ccc(Cl)c(-c2nc(-c3c(C)noc3C)c(C)c(N3CC4(CC(N5CCC5)C4)C3)n2)c1 [Example 268]
Human CARM1 (PRMT4)
  IC50: 1.26 nM
[1]
  IC50: 1350 nM

## CCc1onc(C)c1-c1nc(-c2cc(OC[C@H](O)CNC)ccc2Cl)nc(N2Cc3cccnc3C2)c1C [Example 207]
Human CARM1 (PRMT4)
  IC50: 1.5 nM
[1]
  IC50: 74 nM

## CNC[C@@H](O)COc1ccc(Cl)c(-c2nc(-c3c(C)noc3C)c(C)c(N3CC(C)(C(=O)N4CCC4)C3)n2)c1 [Example 187]
Human CARM1 (PRMT4)
  IC50: 5.8 nM
[1]
  IC50: 337 nM

## CCN(C)c1ncc2c(n1)CN(c1nc(-c3cc(OC[C@H](O)CNC)ccc3Cl)nc(-c3c(C)noc3C)c1C)C2 [Example 157]
Human CARM1 (PRMT4)
  IC50: 2.4 nM
[1]
  IC50: 26 nM

## CNC[C@@H](O)COc1ccc(Cl)c(-c2nc(-c3c(C)noc3C)c(C)c(N3CC4(CCCN(C(=O)OCC(F)F)C4)C3)n2)c1 [Example 302]
Human CARM1 (PRMT4)
  IC50: 5.18 nM
[1]
  IC50: 70.2 nM

## CNC[C@@H](O)COc1ccc(Cl)c(-c2nc(-c3c(Br)cnn3C)c(C)c(N3Cc4ccc(N5CCC5)nc4C3)n2)c1 [Example 243]
Human CARM1 (PRMT4)
  IC50: 0.8 nM
[1]
  IC50: 37 nM

## CNC[C@@H](O)COc1ccc(Cl)c(-c2nc(-c3c(C)noc3C)c(C)c(N3Cc4ccc(N5CCOCC5)nc4C3)n2)c1 [Example 196]
Human CARM1 (PRMT4)
  IC50: 2 nM
[1]
  IC50: 20 nM

## CNC[C@@H](O)COc1ccc(Cl)c(-c2nc(-c3c(C)noc3C)c(C)c(N3CC4(CN(CC(F)(F)F)C4)C3)n2)c1 [Example 99]
Human CARM1 (PRMT4)
  IC50: 11 nM
[1]
  IC50: 39 nM

## CNC[C@@H](O)COc1ccc(Cl)c(-c2nc(-c3c(C)c(Br)nn3C)c(C)c(N3CC4(CC(OCCC#N)C4)C3)n2)c1 [Example 297]
Human CARM1 (PRMT4)
  IC50: 2.83 nM
[1]
  IC50: 39.4 nM

## CNC[C@@H](O)COc1ccc(Cl)c(-c2nc(-c3c(C)noc3C)c(C)c(N3CC4(CC(OC(=O)OC)C4)C3)n2)c1 [Example 239]
Human CARM1 (PRMT4)
  IC50: 4.7 nM
[1]
  IC50: 52 nM

## CNC[C@@H](O)COc1ccc(C(F)(F)F)c(-c2nc(-c3c(C)noc3C)c(C)c(N3Cc4cnn(C(C)C)c4C3)n2)c1 [Example 23]
Human CARM1 (PRMT4)
  IC50: 4.7 nM
[1]
  IC50: 111 nM

## CNC[C@@H](O)COc1ccc(Cl)c(-c2nc(-c3c(C)noc3C)c(C)c(N3Cc4ncnc(OCC(F)F)c4C3)n2)c1 [Example 154]
Human CARM1 (PRMT4)
  IC50: 3.1 nM
[1]
  IC50: 57 nM

## CNC[C@@H](O)COc1ccc(Cl)c(-c2nc(-c3c(C)noc3C)c(C)c(N3CC4(C3)CN(S(C)(=O)=O)C4)n2)c1 [Example 42]
Human CARM1 (PRMT4)
  IC50: 10.4 nM
[1]
  IC50: 406 nM

## CNC[C@@H](O)COc1ccc(Cl)c(-c2nc(-c3c(C)c(Cl)nn3C)c(C)c(N3CC4(CC(C#N)C4)C3)n2)c1 [Example 332]
Human CARM1 (PRMT4)
  IC50: 4.1 nM
[1]
  IC50: 80.9 nM

## CNC[C@@H](O)COc1ccc(Cl)c(-c2nc(-c3c(C)noc3C)c(C)c(N3CC4(CCN(C5COC5)CC4)C3)n2)c1 [Example 64]
Human CARM1 (PRMT4)
  IC50: 11 nM
[1]
  IC50: 111 nM

## CNC[C@@H](O)COc1ccc(Cl)c(-c2nc(-c3c(C)noc3C)c(C)c(N3CC4(CCN(CC(F)F)C4)C3)n2)c1 [Example 32]
Human CARM1 (PRMT4)
  IC50: 7 nM
[1]
  IC50: 53 nM

## CCOC1CC2(C1)CN(c1nc(-c3cc(OC[C@H](O)CNC)ccc3Cl)nc(-c3c(C)noc3C)c1C)C2 [Example 231]
Human CARM1 (PRMT4)
  IC50: 4.6 nM
[1]
  IC50: 41 nM

## CCOc1ccc2c(n1)CN(c1nc(-c3cc(OC[C@H](O)CNC)ccc3Cl)nc(-c3c(C)noc3C)c1C)C2 [Example 245]
Human CARM1 (PRMT4)
  IC50: 2 nM
[1]
  IC50: 38 nM

## CNC[C@@H](O)COc1ccc(Cl)c(-c2nc(-c3c(C)noc3C)c(C)c(N3Cc4cnc(N5CCOCC5)nc4C3)n2)c1 [Example 144]
Human CARM1 (PRMT4)
  IC50: 3.3 nM
[1]
  IC50: 22 nM

## CNC[C@@H](O)COc1ccc(Cl)c(-c2nc(-c3c(C)noc3C)c(C)c(N3Cc4cnn(C(CO)CO)c4C3)n2)c1 [Example 115]
Human CARM1 (PRMT4)
  IC50: 9.9 nM
[1]
  IC50: 9130 nM

## CNC[C@@H](O)COc1ccc(Cl)c(-c2nc(-c3c(C)cnn3C)c(C)c(N3CC4(CCN(C(=O)OC)CC4)C3)n2)c1 [Example 80]
Human CARM1 (PRMT4)
  IC50: 8.8 nM
[1]
  IC50: 182 nM

## CNC[C@@H](O)COc1ccc(Cl)c(-c2nc(-c3c(C)c(Cl)nn3C)c(C)c(N3CC4(CN(C(=O)OC)C4)C3)n2)c1 [Example 265]
Human CARM1 (PRMT4)
  IC50: 4.2 nM
[1]
  IC50: 87.7 nM

## CNC[C@@H](O)COc1ccc(Cl)c(-c2nc(-c3c(C)noc3C)c(C)c(N3Cc4c(C)nn(C(C)C)c4C3)n2)c1 [Example 12]
Human CARM1 (PRMT4)
  IC50: 4.1 nM
[1]
  IC50: 81 nM

## CNC[C@@H](O)COc1ccc(Cl)c(-c2nc(-c3c(C)c(Br)nn3C)c(C)c(N3CC4(CN(CC(F)(F)F)C4)C3)n2)c1 [Example 215]
Human CARM1 (PRMT4)
  IC50: 4.4 nM
[1]
  IC50: 23 nM

## CNC[C@@H](O)COc1ccc(Cl)c(-c2nc(-c3c(C)noc3C)c(C)c(N3Cc4cc(=O)n(C(C)C)cc4C3)n2)c1 [Example 73]
Human CARM1 (PRMT4)
  IC50: 6.1 nM
[1]
  IC50: 422 nM

## CNC[C@@H](O)COc1ccc(Cl)c(-c2nc(-c3c(C)noc3C)c(C)c(N3Cc4cn(CC(F)F)nc4C3)n2)c1 [Example 27]
Human CARM1 (PRMT4)
  IC50: 3.7 nM
[1]
  IC50: 115 nM

## CCn1ncc(Cl)c1-c1nc(-c2cc(OC[C@H](O)CNC)ccc2Cl)nc(N2CC3(CCN(C(=O)OC)CC3)C2)c1C [Example 75]
Human CARM1 (PRMT4)
  IC50: 12.5 nM
[1]
  IC50: 396 nM

## CNC[C@@H](O)COc1ccc(Cl)c(-c2nc(-c3c(C)noc3C)c(C)c(N3Cc4ccnc(OC)c4C3)n2)c1 [Example 212]
Human CARM1 (PRMT4)
  IC50: 2.1 nM
[1]
  IC50: 40 nM

## CNC[C@@H](O)COc1ccc(Cl)c(-c2nc(-c3c(C)noc3C)c(C)c(N3Cc4c(n(C)c(=O)n(C)c4=O)C3)n2)c1 [Example 35]
Human CARM1 (PRMT4)
  IC50: 3.7 nM
[1]
  IC50: 412 nM

## CNC[C@@H](O)COc1ccc(Cl)c(-c2nc(-c3c(C)noc3C)c(C)c(N3CC4(CCCN(CC(F)(F)F)C4)C3)n2)c1 [Example 301]
Human CARM1 (PRMT4)
  IC50: 7.99 nM
[1]
  IC50: 125 nM
